The target in assay [1] is T1, SSTR4 (Homo sapiens, UniProt P31391).
T1 construct: host or cells: CHO-K1
Briefly: Inhibition of forskolin stimulated cAMP in CHO-K1 cells overexpressing SSTR4. Format: cell-based. The following applies: read-out: SSTR4 Activity pEC50 (converted). The method, boiled down:
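CHO-K1 cells overexpressing SSTR4 treated 30 min at room temperature with compound in Krebs Ringer buffer containing 0.5% BSA, 300 μM IBMX and 350 nM forskolin. Intracellular cAMP measured by HTRF LANCE Ultra (665/615 nm); pEC50 values reported.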

The target of assay [2] is T1, SSTR4. Briefly: SSTR4 I-125 somatostatin competition binding assay (CHO-K1 membranes). To be noted: competition with I-125 somatostatin, membranes from CHO-K1 overexpressing SSTR4; read-out: SSTR4 Binding pIC50 (converted). As to the method: SSTR4 I-125 Somatostatin Competition Binding Assay
Membranes from CHO-K1 cells overexpressing SSTR4 are purchased from Perkin Elmer (catalog number ES-524-M400UA). Test compounds are suspended in DMSO and then diluted in assay buffer (25 mM HEPES pH 7.4, 10 mM MgCl2, 1 mM CaCl2), 0.5% BSA) plus 0.2 nM I-125 labeled somatostatin (Perkin Elmer catalog number NEX389). Fifty μL of compound/I-125 somatostatin in assay buffer are added per well to 96-well poly-propylene plate. Then 1 μg of SSTR4 membranes in 50 μL assay buffer are added per well. The Plate is incubated for 60 minutes at room temperature. FilterMat A filters (Perkin Elmer catalog number 1450-421) are pre-soaked in 0.5% PEI (Sigma catalog number P3143). The contents of the assay plate are transferred to filters with a TomTech harvester and washed 5 times with 20 mM HEPES, 100 mM NaCl. The filters are dried in a microwave oven then transferred to sample bag containing a scintillator sheet (Perkin Elmer catalog number 1450-441). The scintillator sheets are melted to filters using a heat block. The filters are then read in a MicroBeta scintillation counter. Binding Ki curves are generated using Activity Base for Screening Data Management and the results are reported as pIC50.

Assay [3] addresses T2, SSTR1 (Homo sapiens, UniProt P30872).
T2 construct: purchased Perkin Elmer ES-520-M400UA; host or cells: CHO-K1 membranes
Briefly: SSTR1 I-125 somatostatin competition binding assay for selectivity versus SSTR1 (CHO-K1 membranes). The following applies: competition with I-125 somatostatin, membranes from CHO-K1 overexpressing SSTR1; read-out: SSTR1 Binding pIC50 (converted). As to the method: SSTR1 I-125 Somatostatin Competition Binding Assay for Selectivity Versus SSTR1
Membranes from CHO-K1 cells overexpressing SSTR1 are purchased from Perkin Elmer (catalog number ES-520-M400UA). Test compounds are suspended in DMSO and then diluted in assay buffer (25 mM HEPES pH 7.4, 10 mM MgCl2, 1 mM CaCl2), 0.5% BSA) plus 0.4 nM I-125 labeled somatostatin (Perkin Elmer catalog number NEX389). Fifty μL of compound/I-125 somatostatin in assay buffer are added per well to 96-well poly-propylene plate. Then 10 μg of SSTR1 membranes in 50 μL assay buffer are added per well. The plate is incubated for 60 minutes at room temperature. FilterMat A filters (Perkin Elmer catalog number 1450-421) are pre-soaked in 0.5% PEI (Sigma catalog number P3143). The contents of the assay plate are transferred to filters with a TomTech harvester and washed 5 times with 20 mM HEPES, 100 mM NaCl. The filters are dried in a microwave oven then transferred to sample bag containing a scintillator sheet (Perkin Elmer catalog number 1450-441). The scintillator sheets are melted to the filters using a heat block. The filters are then read in a MicroBeta scintillation counter. Binding Ki curves are generated using Activity Base for Screening Data Management and the results are reported as pIC50.

Where only a bound is given, the exact number is not on record here.

T1 sequence (P31391 whole entry): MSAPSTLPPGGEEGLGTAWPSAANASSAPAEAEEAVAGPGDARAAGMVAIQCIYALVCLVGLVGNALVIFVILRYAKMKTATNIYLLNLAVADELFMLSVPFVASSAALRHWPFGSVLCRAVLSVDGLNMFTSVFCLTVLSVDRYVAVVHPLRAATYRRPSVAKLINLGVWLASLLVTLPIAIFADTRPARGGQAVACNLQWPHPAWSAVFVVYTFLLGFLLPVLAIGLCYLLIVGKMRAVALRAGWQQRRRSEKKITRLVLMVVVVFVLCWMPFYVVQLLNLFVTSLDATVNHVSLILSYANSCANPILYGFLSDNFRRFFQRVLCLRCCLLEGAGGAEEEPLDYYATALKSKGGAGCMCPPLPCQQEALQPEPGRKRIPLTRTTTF
T2 sequence (P30872 whole entry): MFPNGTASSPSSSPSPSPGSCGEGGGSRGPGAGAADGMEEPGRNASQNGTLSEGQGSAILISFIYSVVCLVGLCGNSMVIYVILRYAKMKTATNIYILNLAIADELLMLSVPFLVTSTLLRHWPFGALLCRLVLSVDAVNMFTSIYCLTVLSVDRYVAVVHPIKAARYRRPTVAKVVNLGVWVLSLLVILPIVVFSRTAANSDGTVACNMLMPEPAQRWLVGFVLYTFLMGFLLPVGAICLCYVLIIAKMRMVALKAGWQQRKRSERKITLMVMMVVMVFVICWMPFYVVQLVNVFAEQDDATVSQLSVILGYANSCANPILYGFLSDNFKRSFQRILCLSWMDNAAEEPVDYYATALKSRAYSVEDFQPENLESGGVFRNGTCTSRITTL

`CN1CCCCC1CC(=O)NC(C)(C)c1nn(C)c2ccccc12` (stereo not drawn) [Example 2, N-(2-(1-methyl-1H-indazol-3-yl)propan-2-yl)-2-(1-methylpiperidin-2-yl)acetamide]: the EC50 in assay [1] is 6.31 nM. The IC50 in assay [2] is 63.1 nM; in assay [3] it was 3160 nM.
For `CN1CCC[C@@H]1CC(=O)NC(C)(C)c1nn(C)c2ccccc12` [Example 3, (R)-N-(2-(1-methyl-1H-indazol-3-yl)propan-2-yl)-2-(1-methylpyrrolidin-2-yl)acetamide] the same measures were 25.1 nM, 200 nM and 5010 nM.
For `CN1CCC[C@H]1CC(=O)NC(C)(C)c1nn(C)c2ccccc12` [Example 4, (S)-N-(2-(1-methyl-1H-indazol-3-yl)propan-2-yl)-2-(1-methylpyrrolidin-2-yl)acetamide], in that order: 25.1 nM, 158 nM and 10000 nM.
For `CC(C)(NC(=O)CCN1CCCC1)c1nccc2ccccc12` [Example 5, N-(2-(isoquinolin-1-yl)propan-2-yl)-3-(pyrrolidin-1-yl)propanamide], in that order: 3.98 nM, 50.1 nM and 5010 nM.
With `CN1CCCCC1CC(=O)NC(C)(C)c1nccc2ccccc12` (stereo not drawn) [Example 6, N-(2-(isoquinolin-1-yl)propan-2-yl)-2-(1-methylpiperidin-2-yl)acetamide], the EC50 in assay [1] is 1.58 nM. Further, the IC50 was 25.1 nM in assay [2] and 2510 nM in assay [3].
Consider `Cc1cccc2c(C(C)(C)NC(=O)CC3CCCCN3C)nccc12` (stereo not drawn) [Example 7, N-(2-(5-methylisoquinolin-1-yl)propan-2-yl)-2-(1-methylpiperidin-2-yl)acetamide], for which, in assay [1], the EC50 is 3.98 nM. Also, the IC50 is 79.4 nM in assay [2] and 5010 nM in assay [3].
For `CN1CCCCC1CC(=O)NC(C)(C)c1cccc(Cl)c1` (stereo not drawn) [Example 11, N-(2-(3-chlorophenyl)propan-2-yl)-2-(1-methylpiperidin-2-yl)acetamide] the same measures were 39.8 nM, 200 nM and 25100 nM.
For `CN1CCC[C@@H]1CC(=O)NC(C)(C)c1nccc2ccccc12` [Example 16, (R)-N-(2-(isoquinolin-1-yl)propan-2-yl)-2-(1-methylpyrrolidin-2-yl)acetamide], in that order: 12.6 nM, 100 nM and 3160 nM.
For `Cc1cccc2c(C(C)(C)NC(=O)C[C@H]3CCCN3C)nccc12` [Example 17, (R)-N-(2-(5-methylisoquinolin-1-yl)propan-2-yl)-2-(1-methylpyrrolidin-2-yl)acetamide] the same measures were 3.98 nM, 100 nM and 5010 nM.
In the case of `Cc1cccc2c(C(C)(C)NC(=O)C[C@@H]3CCCN3C)nccc12` [Example 18, (S)-N-(2-(5-methylisoquinolin-1-yl)propan-2-yl)-2-(1-methylpyrrolidin-2-yl)acetamide], the EC50 in assay [1] was 7.94 nM. Further, the figures for the IC50 in assay [2] and in assay [3] were 100 nM and 7940 nM, respectively.
For `Cc1cccc2c(C(C)(C)NC(=O)C[C@H]3CCCN3C)noc12` [Example 19, (R)-N-(2-(7-methylbenzo[d]isoxazol-3-yl)propan-2-yl)-2-(1-methylpyrrolidin-2-yl)acetamide] the same measures were 12.6 nM, 126 nM and 10000 nM.
For `Cc1cccc2c(C(C)(C)NC(=O)C[C@@H]3CCCN3C)noc12` [Example 21, (S)-N-(2-(7-methylbenzo[d]isoxazol-3-yl)propan-2-yl)-2-(1-methylpyrrolidin-2-yl)acetamide] the same measures were 12.6 nM, 79.4 nM and 25100 nM.
`Cc1cc2ccccc2c(C(C)(C)NC(=O)C[C@@H]2CCCN2C)n1` [Example 22, (S)-N-(2-(3-methylisoquinolin-1-yl)propan-2-yl)-2-(1-methylpyrrolidin-2-yl)acetamide]: the EC50 in assay [1] is 7.94 nM. In addition, the IC50 in assay [2] is 63.1 nM; in assay [3], 2510 nM.
For `CC(C)(NC(=O)C[C@@H]1CCCN1)c1nccc2ccccc12` [Example 23, (S)-N-(2-(isoquinolin-1-yl)propan-2-yl)-2-(pyrrolidin-2-yl)acetamide], in that order: 25.1 nM, 1000 nM and 7940 nM.
For `CN1CCC[C@H]1CC(=O)NC(C)(C)c1nccc2ccccc12` [Example 24, (S)-N-(2-(isoquinolin-1-yl)propan-2-yl)-2-(1-methylpyrrolidin-2-yl)acetamide], in that order: 12.6 nM, 200 nM and 6310 nM.
On to `CCN1CCCC1CC(=O)NC(C)(C)c1nccc2occc12` (stereo not drawn) [Example 27, 2-(1-ethylpyrrolidin-2-yl)-N-(2-(furo[3,2-c]pyridin-4-yl)propan-2-yl)acetamide], for which, in assay [1], the EC50 was 31.6 nM. Besides, the IC50 was 501 nM in assay [2] and > 50100 nM in assay [3].
For `CN1CCCC1CC(=O)NC(C)(C)COc1ncccc1C(F)(F)F` (stereo not drawn) [Example 28, N-(2-methyl-1-((3-(trifluoromethyl)pyridin-2-yl)oxy)propan-2-yl)-2-(1-methylpyrrolidin-2-yl)acetamide] the same measures were 20 nM, 251 nM and 15800 nM.
For `CN1CCCCC1CC(=O)NC(C)(C)c1ccc(Cl)cc1` (stereo not drawn) [Example 30, N-(2-(4-chlorophenyl)propan-2-yl)-2-(1-methylpiperidin-2-yl)acetamide], in that order: 31.6 nM, 126 nM and 31600 nM.
For `CN1CCC[C@H]1CC(=O)NC(C)(C)c1nccc2occc12` [Example 34, (S)-N-(2-(furo[3,2-c]pyridin-4-yl)propan-2-yl)-2-(1-methylpyrrolidin-2-yl)acetamide] the same measures were 100 nM, 316 nM and > 50100 nM.
Take `CN1CCC[C@H]1CC(=O)NC(C)(C)c1ccc(Cl)cc1` [Example 35, (S)-N-(2-(4-chlorophenyl)propan-2-yl)-2-(1-methylpyrrolidin-2-yl)acetamide]: in assay [1], the EC50 was 63.1 nM. For the same molecule, the IC50 in assay [2] was 316 nM; in assay [3], 12600 nM.
For `CN1CCC[C@@H]1CC(=O)NC(C)(C)c1cc(Cl)ccc1Cl` [Example 38, (R)-N-(2-(2,5-dichlorophenyl)propan-2-yl)-2-(1-methylpyrrolidin-2-yl)acetamide] the same measures were 63.1 nM, 316 nM and 25100 nM.
Consider `CN1CCC[C@@H]1CC(=O)NC(C)(C)c1nccc2occc12` [Example 39, (R)-N-(2-(furo[3,2-c]pyridin-4-yl)propan-2-yl)-2-(1-methylpyrrolidin-2-yl)acetamide], for which the EC50 in assay [1] was 50.1 nM. Also, the IC50 in assay [2] was 794 nM; in assay [3], > 50100 nM.
For `CN1CCC[C@@H]1CC(=O)NC(C)(C)c1ccc(Cl)cc1` [Example 40, (R)-N-(2-(4-chlorophenyl)propan-2-yl)-2-(1-methylpyrrolidin-2-yl)acetamide], in that order: 50.1 nM, 200 nM and 20000 nM.
For `Cc1cccc2c(C(C)(C)NC(=O)CC3CCCCN3C)noc12` (stereo not drawn) [Example 41, N-(2-(7-methylbenzo[d]isoxazol-3-yl)propan-2-yl)-2-(1-methylpiperidin-2-yl)acetamide], the EC50 in assay [1] is 3.16 nM. The IC50 in assay [2] is 63.1 nM; in assay [3], 6310 nM.
Turning to `Cc1cnc(C(C)(C)NC(=O)CC2CCCCN2C)c2ccccc12` (stereo not drawn) [Example 42, N-(2-(4-methylisoquinolin-1-yl)propan-2-yl)-2-(1-methylpiperidin-2-yl)acetamide], in assay [1], the EC50 was 0.794 nM. Further, the IC50 in assay [2] is 3.16 nM; in assay [3], 631 nM.

(Values after US20230150981A1, “N-HETEROARYLALKYL-2-(HETEROCYCLYL AND HETEROCYCLYLMETHYL) ACETAMIDE DERIVATIVES AS SSTR4 AGONISTS” (Takeda Pharmaceutical Compnay Limited, priority 2020, published 2023).)
